Assay results from patent US8257755B2, “Metabolic syndrome-improving agent and medicine, supplement, functional food and food additive containing the same” (ARKRAY, Inc., priority 2005, dated 2012).

Test system: 3T3-L1 cells
Test: mRNA expression of aP2 and adiponectin in differentiated 3T3-L1 adipocytes (Light Cycler)
Type: cell-based, mouse
Conditions: 7 days after differentiation induction, non-treatment control = 100, average ± standard error
Experimental: Next, culture preadipocytes 3T3-L1 were thawed, inoculated in a 100 mm dish and cultured until 3T3-L1 cells reached about 80% confluence. A single dish of 3T3-L1 that had reached about 80% confluence was subcultured to a single 6-well plate and further cultured until the 3T3-L1 cells reached confluence in the 6-well plate, and then the medium was replaced with the differentiation induction medium, followed by differentiation induction. 48 hours later, the medium was replaced with the differentiation promotion medium, and thereafter, the medium was replaced with the differentiation promotion medium every two days. 7 days after the initiation of the differentiation induction, mRNA was extracted using Sepasol-RNA I Super (trade name; manufactured by Nacalai Tesque, Inc.), and the mRNA expression amounts of 36B4, aP2 and adiponectin, which were indicators of an early period of adipocyte differentiation, were measured using Light Cycler (TM). Also, the medium 7 days after the differentiation induction was taken in an amount of 1 mL from each well, and the amount of adiponectin in the medium supernatant was measured using a mouse/rat adiponectin ELISA kit (manufactured by Otsuka Pharmaceutical Co., Ltd.).
The medium was removed from the above-described 6-well plate, 1 mL of Sepasol(R)-RNA I Super (manufactured by Nacalai Tesque, Inc.) was added to each well, and pipetting was repeated several times so as to disperse the cells. This solution was transferred to a 1.5 mL tube and allowed to stand for 5 minutes at room temperature, and then 200 μL of chloroform was added, stirred well with a vortex stirrer and allowed to stand for 3 minutes at room temperature. The solution was cooled to 4° C. and centrifuged at 12000×g for 15 minutes. While taking great care not to disturb an interface between a phenol layer (a lower layer, yellow) and a water layer (an upper layer, colorless), the water layer alone was transferred to another tube (with a capacity of 1.5 mL). At this time, care was taken not to take proteins floating between these layers. 500 μL of isopropanol was added to the tube and mixed and allowed to stand for 10 minutes at room temperature. The solution was cooled to 4° C. and centrifuged at 12000×g for 10 minutes, followed by removing about 1 mL of the supernatant. To this precipitate, 1 mL of 75% ethanol was added and stirred to suspend the precipitate sufficiently, and then cooled to 4° C. and centrifuged at 12000×g for 10 minutes, followed by removing the supernatant. The resultant precipitate (total RNA) was dried and then dissolved in 20 μL of nuclease free water, thus measuring the concentration of mRNA using NanoDrop (manufactured by SCRUM Inc.).
The extracted and measured mRNA solution was adjusted to have an mRNA concentration of 1 μg/μL. […]

SMILES: CC(C)=CCC/C(C)=C/COc1c2ccoc2cc2oc(=O)ccc12 [Bergamottin, bergamottin]
- Adiponectin mRNA expression amount (ratio to 36B4) (1 μM): 189.5 ± 9.7
- aP2 mRNA expression amount (ratio to 36B4) (1 μM): 157.5 ± 7.3
- Adiponectin mRNA expression amount (ratio to 36B4) (5 μM): 227.2 ± 16.0
- aP2 mRNA expression amount (ratio to 36B4) (5 μM): 194.6 ± 9.0
